The values below come from ChEMBL document CHEMBL5113548, “Novel Lactams as Cbl-b Inhibitors for Treating Cancer” (ACS Med Chem Lett, 2022).

pIC50: −log10 of the molar value.

What is called pIC50 is the negative decadic logarithm of the IC50, by convention in mol/L.

Chain of E3 ubiquitin-protein ligase CBL-B (Q13191 whole entry): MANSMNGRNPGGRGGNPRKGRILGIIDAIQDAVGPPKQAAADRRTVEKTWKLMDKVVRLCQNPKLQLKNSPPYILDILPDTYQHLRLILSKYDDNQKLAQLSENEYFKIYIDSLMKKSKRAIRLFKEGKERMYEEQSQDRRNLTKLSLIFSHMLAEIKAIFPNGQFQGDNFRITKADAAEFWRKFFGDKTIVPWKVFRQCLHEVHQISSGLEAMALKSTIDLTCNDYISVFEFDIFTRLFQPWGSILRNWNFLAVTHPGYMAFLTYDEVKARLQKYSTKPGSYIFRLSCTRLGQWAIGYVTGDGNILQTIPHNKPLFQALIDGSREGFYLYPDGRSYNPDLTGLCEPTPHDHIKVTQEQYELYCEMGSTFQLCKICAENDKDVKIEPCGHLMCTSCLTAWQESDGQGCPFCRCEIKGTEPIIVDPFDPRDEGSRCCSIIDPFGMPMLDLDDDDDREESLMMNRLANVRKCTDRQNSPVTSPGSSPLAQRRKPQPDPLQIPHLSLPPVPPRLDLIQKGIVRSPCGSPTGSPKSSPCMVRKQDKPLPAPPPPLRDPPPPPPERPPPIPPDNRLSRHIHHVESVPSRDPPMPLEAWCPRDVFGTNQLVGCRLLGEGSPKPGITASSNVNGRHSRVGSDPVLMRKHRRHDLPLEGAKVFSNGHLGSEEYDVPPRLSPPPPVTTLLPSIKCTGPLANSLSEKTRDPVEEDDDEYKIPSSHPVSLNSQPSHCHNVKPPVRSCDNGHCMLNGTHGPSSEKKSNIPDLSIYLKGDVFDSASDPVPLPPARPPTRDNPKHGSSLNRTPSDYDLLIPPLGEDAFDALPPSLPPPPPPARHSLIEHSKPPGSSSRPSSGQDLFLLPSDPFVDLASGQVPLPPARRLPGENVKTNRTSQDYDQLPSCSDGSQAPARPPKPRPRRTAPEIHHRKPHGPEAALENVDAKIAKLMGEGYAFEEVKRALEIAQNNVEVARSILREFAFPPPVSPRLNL

The test concerns the target E3 ubiquitin-protein ligase CBL-B (Homo sapiens, UniProt Q13191). As to the kind of experiment: Inhibition of Cbl-b (unknown origin) assessed as reduction in LCK ubiquitination preincubated for 60 mins followed by kinase mix addition measured after 90 mins by TR-FRET assay. For orientation: TR-FRET usually uses a lanthanide donor and a delayed reading to cut background.
Consider `C[C@@H](NC1(C)CCC1)c1cc2c(c(C(F)(F)F)c1)CN(c1cccc(C3(Cc4nncn4C)CC(F)(F)C3)c1)C2=O`, for which the negative logarithm of the IC50 (pIC50) was 8.24. With `C[C@@H](NC1(C)CCC1)c1cc2c(c(C(F)(F)F)c1)CN(c1cccc(C3([C@@H](F)c4nncn4C)COC3)c1)C2=O`, the pIC50 is 8.17. Take `CC(C)[C@@H]1CN(C)CCN1Cc1cc2c(c(C(F)(F)F)c1)CN(c1cc(C3(Cc4nncn4C)COC3)cc(OC3CCCC3)n1)C2=O`: the negative-log IC50 (pIC50) was 8.26.
